# Molecular target: ScoE (Streptomyces coeruleorubidus, UniProt A0A3B6UEU3)
# Test: LC-MS of pyrazole product […] after tetrazine derivatization
# Type: biochemical
Compound,LC-MS of pyrazole product 8 after tetrazine derivatization (accepted chain length),LC-MS of pyrazole product 8 after tetrazine derivatization (preferred chain length)
"CCCC(CC(=O)O)NCC(=O)O (centres unmarked) [6 (n = 3), 6 with a propyl group]","substrates that have a short alkyl chain, e.g., a methyl and propyl group",–
"CC(CC(=O)O)NCC(=O)O (centres unmarked) [6 (n = 1), methyl-6]",–,"substrates that have a short alkyl chain, e.g., a methyl and propyl group"

# Reference: PMC11811631 (RSC Chemical Biology, 2025)
